Consider 5 compounds from US20060004029A1, “Nitrogen-containing aromatic derivatives” (priority 2003, published 2006).

T1 sequence (P11362 398-822 limits assumed): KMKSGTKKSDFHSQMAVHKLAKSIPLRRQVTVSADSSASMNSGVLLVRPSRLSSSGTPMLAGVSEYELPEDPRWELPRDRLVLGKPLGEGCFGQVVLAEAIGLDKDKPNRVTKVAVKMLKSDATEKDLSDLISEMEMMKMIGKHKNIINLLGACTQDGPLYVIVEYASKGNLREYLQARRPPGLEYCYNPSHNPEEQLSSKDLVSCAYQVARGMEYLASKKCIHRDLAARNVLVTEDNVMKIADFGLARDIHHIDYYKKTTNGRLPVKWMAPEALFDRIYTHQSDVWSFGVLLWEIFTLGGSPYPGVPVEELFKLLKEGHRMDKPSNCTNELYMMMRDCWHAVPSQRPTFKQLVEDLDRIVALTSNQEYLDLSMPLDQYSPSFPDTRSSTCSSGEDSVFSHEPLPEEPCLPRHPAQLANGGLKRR

This assay addresses T1, FGFR1 (Homo sapiens, UniProt P11362).
T1 construct: made in house; host or cells: Sf9 insect cells, baculovirus (pFastBacHis), by the same method as VEGFR2
As to the kind of experiment: Inhibition against receptor tyrosine kinase activity (HTRF), FGFR1. The assay is classed as biochemical. Conditions: His6-FGFR1 cytoplasmic domain, biotin-poly(GT), HTRF; read-out: FGFR1 kinase IC50. The text has this:
This assay is used to determine inhibition of a test substance on tyrosine kinase activity. DNA coding for the cytoplasmic domain of VEGFR2 is obtained by total cDNA synthesis (Edwards M, International Biotechnology Lab 5(3), 19-25, 1987) or by cloning. Expression in an appropriate expression system can produce a polypeptide with tyrosine kinase activity. […] For VEGFR2 (GenBank Accession No. L04947), the 1.7 kb DNA fragment described by Terman et al. (Oncogene, 6(9), 1677-1683, 1991), coding for the cytoplasmic domain, beginning with lysine 791 and including the termination codon, was isolated from a human placental cDNA library (purchased from Clontech Laboratories, Inc.) and cloned in a Baculovirus expression vector (pFastBacHis, purchased from GIBCO BRL). The recombinant construct was transfected into insect cells (Spondoptea frugiperda9 (Sf9)) to prepare a recombinant Baculovirus. (Instructions for preparation and use of recombinant Baculovirus may be found in standard texts, such as “Bac-To-Bac Baculovirus Expression System” (GIBCO BRL).) The cytoplasmic fragment starting from lysine 398 (FGFR1, GenBank Accession No. X52833), the cytoplasmic fragment starting from lysine 558 (PDGFRβ, GenBank Accession No. M21616) or the cytoplasmic fragment starting from lysine 974 (HGFR, GenBank Accession No. J02958) may be cloned and expressed by the same method for use in assays for other tyrosine kinases. EGFR was purchased from Sigma Co. (Product No. E-2645).
For expression of the VEGFR2 tyrosine kinase, Sf9 cells were infected with the VEGFR2 recombinant virus and collected after 48 hours. The collected cells were rinsed with ice-cooled phosphate buffered saline (PBS) and then resuspended using 20 ml of ice-cooled Lysis Buffer (50 mM Tris-HCl (pH 8.5), 5 mM 2-mercaptoethanol, 100 mM KCl, 1 mM phenylmethylsulfonyl fluoride, 1% (v/v) NP-40) per 1.5×10^8 cells. The suspension was centrifuged at 12,000 rpm for 30 minutes at 4° C. and the supernatant was obtained. The supernatant was added to a Ni-NTA agarose column (3 ml, purchased from Qiagen) equilibrated with Buffer A {20 mM Tris-HCl (pH 8.5), 5 mM 2-mercaptoethanol, 500 mM KCl, 20 mM imidazole, 10% (v/v) glycerol}. The column was washed with 30 ml of Buffer A, and then with 6 ml of Buffer B {20 mM Tris-HCl (pH 8.5), 5 mM 2-mercaptoethanol, 1M KCl, 10% (v/v) glycerol}, and finally with 6 ml of Buffer A. After washing, it was eluted with 6 ml of Buffer C {20 mM Tris-HCl (pH 8.5), 5 mM 2-mercaptoethanol, 100 mM KCl, 100 mM imidazole, 10% (v/v) glycerol}. The eluate was placed on a dialysis membrane (purchased from Spectrum Laboratories) and dialyzed with a dialysis buffer {20 mM Tris-HCl (pH 7.5), 10% (v/v) glycerol, 1 mM dithiothreitol, 0.1 mM Na3VO4, 0.1 mM EGTA}. After dialysis, it was supplied for SDS-electrophoresis, and the recombinant protein (His6-VEGFR2, cytoplasmic domain of VEGFR2 fused with 6 histidine residues at the N-terminus) detected at a molecular weight of approximately 100 kDa with Coumassie Brilliant Blue staining was assayed using BSA (bovine serum albumin, purchased from Sigma Co.) as the standard substance, and stored at −80° C. until use. Using the same method for the cytoplasmic domains of FGFR1, PDGFRβ and HGFR yielded respective recombinant proteins fused with 6 histidine residues at the N-terminal (His6-FGFR1, His6-PDGFRβ or His6-HGFR).
The tyrosine kinase reaction was conducted as follows. In the case of VEGFR2, for example, 10 μl of a kinase reaction solution {200 mM Hepes (pH 7.4), 80 mM MgCl2, 16 mM MnCl2, 2 mM Na3VO4}, 250 ng of biotin-bound poly(Glu4:Tyr1) (biotin-poly(GT), purchased from CIS Diagnostics Co.) (6 μl of a 15-fold dilution with distilled water), 15 ng of His6-VEGFR2 (10 μl of a 240-fold dilution with 0.4% BSA solution) and the test substance dissolved in dimethyl sulfoxide (4 μl of a 100-fold dilution with 0.1% BSA solution) were added into each well of a 96-well round-bottom plate (NUNC Co., Product No. 163320), to a total of 30 μl. […]
A general note: In TR-FRET formats the signal depends on donor and acceptor labels being close together.
`CNC(=O)n1ccc2cc(Oc3ccnc(NC(=O)N4CCC(O)CC4)c3)ccc21` [Example 39, N1-Methyl-5-(2-((4-hydroxypiperidino)carbonyl)amino-4-pyridyl)oxy-1H-1-indolecarboxamide]: the IC50 is 6.3 nM.

Take `CNC(=O)n1ccc2cc(Oc3ccnc(NC(=O)N4CCC(C)(O)CC4)c3)ccc21` [Example 41, 5-(2-(((4-Hydroxy-4-methylpiperidin-1-yl)carbonyl)amino)pyridin-4-yloxy)-1H-1-indole-1-carboxylic acid methylamide]: the IC50 was determined as 3.2 nM.

Consider `CNC(=O)n1ccc2cc(Oc3ccnc(NC(=O)N4CCC(N5CCCC5)CC4)c3)ccc21` [Example 46, N1-Methyl-5-(2-(((4-(pyrrolidin-1-yl)piperidin-1-yl)carbonyl)amino)pyridin-4-yloxy)-1H-1-indolecarboxamide], for which the IC50 was 12 nM.

With `CNC(=O)n1ccc2cc(Oc3ccnc(NC(=O)N4CCC(N5CCCCC5)CC4)c3)ccc21` [Example 47, N1-Methyl-5-(2-(((4-(piperidin-1-yl)piperidin-1-yl)carbonyl)amino)pyridin-4-yloxy)-1H-1-indolecarboxamide], the IC50 was found to be 21 nM.

Regarding `CNC(=O)n1ccc2cc(Oc3ccnc(NC(=O)N4CCOCC4)c3)ccc21` [Example 53, N4-(4-(1-(Methylamino)carbonyl-1H-5-indolyl)oxy-2-pyridyl)-4-morpholinecarboxamide], the IC50 is 2.1 nM.

The IC50 is the point on the concentration scale where inhibition reaches its midpoint.
